Reference: ChEMBL document CHEMBL5620398, “Membrane-active substituted triazines as antibacterial agents against Staphylococcus aureus with potential for low drug resistance and broad activity” (Eur J Med Chem, 2023)
≈ marks a conversion by molar mass, not a printed value. Calls of active or inactive are those of the source. The calls are words filed in the database; no cut-off is given here.

What was measured:
Enterococcus faecalis [1] = experiment: Antibacterial activity against Enterococcus faecalis assessed as inhibition of bacterial growth by two-fold serial broth dilution method; format: functional
Bacillus subtilis = experiment: Antibacterial activity against Bacillus subtilis assessed as inhibition of bacterial growth by two-fold serial broth dilution method; format: functional
Listeria = experiment: Antibacterial activity against Listeria sps. assessed as inhibition of bacterial growth by two-fold serial broth dilution method; format: functional
Staphylococcus aureus [2] = experiment: Antibacterial activity against Staphylococcus aureus assessed as inhibition of bacterial growth by two-fold serial broth dilution method; format: functional
Escherichia coli = experiment: Antibacterial activity against Escherichia coli assessed as inhibition of bacterial growth by two-fold serial broth dilution method; format: functional
Salmonella enterica = experiment: Antibacterial activity against Salmonella enterica assessed as inhibition of bacterial growth by two-fold serial broth dilution method; format: functional
[3] = tested on: Acinetobacter calcoaceticus; experiment: Antibacterial activity against Acinetobacter calcoaceticus assessed as inhibition of bacterial growth by two-fold serial broth dilution method; format: functional
Serratia marcescens = experiment: Antibacterial activity against Serratia marcescens assessed as inhibition of bacterial growth by two-fold serial broth dilution method; format: functional
Enterococcus faecalis [4] = experiment: Bacteriostatic activity against Enterococcus faecalis assessed as inhibition of bacterial growth; format: functional
Staphylococcus aureus [5] = experiment: Bactericidal activity against Staphylococcus aureus assessed as bacterial killing; format: functional
Enterococcus faecalis [6] = experiment: Ratio of MBC to MIC for Enterococcus faecalis; format: functional
Staphylococcus aureus [7] = experiment: Ratio of MBC to MIC for Staphylococcus aureus; format: functional
Staphylococcus aureus [8] = experiment: Bactericidal activity against Staphylococcus aureus assessed as decrease in bacterial absorbance at MIC measured after 1 hr by time-kill analysis; format: functional, organism-based
Staphylococcus aureus [9] = experiment: Bactericidal activity against Staphylococcus aureus assessed as decrease in bacterial absorbance at 1/2XMIC measured after 2 hrs by time-kill analysis; format: functional, organism-based
Staphylococcus aureus [10] = experiment: Bactericidal activity against Staphylococcus aureus assessed as inhibition of bacterial growth at 1/4XMIC measured for 3 hrs by time-kill analysis; format: functional, organism-based
Staphylococcus aureus [11] = experiment: Antibacterial activity against Staphylococcus aureus assessed as inhibition of bacterial growth measured after 11 passages; format: functional, organism-based
Staphylococcus aureus [12] = experiment: Anti-biofilm activity against Staphylococcus aureus assessed as inhibition of biofilm formation at MIC by crystal violet assay; format: functional
Staphylococcus aureus [13] = experiment: Anti-biofilm activity against Staphylococcus aureus assessed as inhibition of biofilm formation at 1/2XMIC by crystal violet assay; format: functional
Staphylococcus aureus [14] = experiment: Anti-biofilm activity against Staphylococcus aureus assessed as inhibition of biofilm formation at 1/8XMIC by crystal violet assay; format: functional
Staphylococcus aureus [15] = experiment: Anti-biofilm activity against Staphylococcus aureus assessed as inhibition of biofilm formation at 1/16XMIC by crystal violet assay; format: functional
Cell membrane [16] = experiment: Induction of Outer membrane disruption in Staphylococcus aureus assessed as […] in fluorescence intensity at MIC to 4X MIC by NPN dye based fluorescence analysis
Cell membrane [17] = experiment: Induction of Outer membrane disruption in Staphylococcus aureus assessed as […] in fluorescence intensity at MIC to 4X MIC measured for 5 to 30 mins by NPN dye based fluorescence analysis; settings: time 5-30 min, TDE = time-dependent effect
Cell membrane [18] = experiment: Induction of Inner membrane disruption in Staphylococcus aureus assessed as increase in fluorescence intensity at MIC to 4XMIC by EtBr dye based fluorescence analysis; format: cell membranes
Cell membrane [19] = experiment: Induction of Inner membrane disruption in Staphylococcus aureus assessed as increase in fluorescence intensity at MIC to 4XMIC measured for 5 to 30 mins by EtBr dye based fluorescence analysis; format: cell membranes; settings: time 5-30 min, TDE = time-dependent effect
Cell membrane [20] = experiment: Induction of cell membrane damage in Staphylococcus aureus assessed as increase in leaked protein content at MIC to 8XMIC; format: cell membranes
Cell membrane [21] = experiment: Induction of cell membrane damage in Staphylococcus aureus assessed as loss of bacterial metabolic activity at MIC to 8XMIC by Alamar blue dye based fluorescence analysis; format: cell membranes
Cell membrane [22] = experiment: Induction of cell membrane damage in Staphylococcus aureus assessed as broken cell membrane at 2XMIC by SEM analysis; format: cell membranes
Cell membrane [23] = experiment: Induction of cell membrane damage in Staphylococcus aureus assessed as corrugation with leakage of cellular contents at 2XMIC by SEM analysis; format: cell membranes
HEK293 [24] = experiment: Cytotoxicity against human HEK293 cells at 0.01 uM by MTT assay; format: toxicity, cell-based; settings: hek293, 0.01 µM
HEK293 [25] = experiment: Cytotoxicity against human HEK293 cells at 0.1 uM by MTT assay; format: toxicity, cell-based; settings: hek293, 0.1 µM
HEK293 [26] = experiment: Cytotoxicity against human HEK293 cells at 1 uM by MTT assay; format: toxicity, cell-based; settings: hek293, 1 µM
HEK293 [27] = experiment: Cytotoxicity against human HEK293 cells at 10 uM by MTT assay; format: toxicity, cell-based; settings: hek293, 10 µM
HEK293 [28] = experiment: Cytotoxicity against human HEK293 cells at 100 uM by MTT assay; format: toxicity, cell-based; settings: hek293, 100 µM
Albumin [29] = target: T1, Albumin (Homo sapiens, UniProt P02768); experiment: Binding affinity to human serum albumin assessed as binding constant by Benesi-Hildebrand equation based analysis; format: ADME; settings: isolated protein
Albumin [30] = target: T1, Albumin; experiment: Binding affinity to human serum albumin assessed as increase in compound corresponding new band formation at 344 nm at 0 to 18 uM by UV-Vis absorption spectroscopic analysis; format: ADME; settings: isolated protein, dose 0-18 µM
Albumin [31] = target: T1, Albumin; experiment: Binding affinity to human serum albumin assessed as hyperchromic shift at 280 nm at 0 to 18 uM by UV-Vis absorption spectroscopic analysis; format: ADME; settings: isolated protein, dose 0-18 µM
Albumin [32] = target: T1, Albumin; experiment: Binding affinity to human serum albumin assessed as quenching in emission band at 350 nm at 0 to 35 uM at 298 to 318K by fluorescence based analysis; format: ADME; settings: isolated protein, dose 0-35 µM
Albumin [33] = target: T1, Albumin; experiment: Binding affinity to human serum albumin assessed as Stem-Volmer quenching constant at 298K by fluorescence based analysis; format: ADME; settings: isolated protein
Albumin [34] = target: T1, Albumin; experiment: Binding affinity to human serum albumin assessed as quenching constant at 298K by fluorescence based analysis; format: ADME; settings: isolated protein
Albumin [35] = target: T1, Albumin; experiment: Binding affinity to human serum albumin assessed as Stem-Volmer quenching constant at 308K by fluorescence based analysis; format: ADME; settings: isolated protein
Albumin [36] = target: T1, Albumin; experiment: Binding affinity to human serum albumin assessed as Stem-Volmer quenching constant at 318K by fluorescence based analysis; format: ADME; settings: isolated protein
Albumin [37] = target: T1, Albumin; experiment: Binding affinity to human serum albumin assessed as binding constant at 298K by fluorescence based analysis; format: ADME; settings: isolated protein
Albumin [38] = target: T1, Albumin; experiment: Binding affinity to human serum albumin assessed as binding constant at 308K by fluorescence based analysis; format: ADME; settings: isolated protein
Albumin [39] = target: T1, Albumin; experiment: Binding affinity to human serum albumin assessed as binding constant at 318K by fluorescence based analysis; format: ADME; settings: isolated protein
Albumin [40] = target: T1, Albumin; experiment: Binding affinity to human serum albumin assessed as change in enthalpy by Van't Hoff plot analysis; format: ADME; settings: isolated protein
Albumin [41] = target: T1, Albumin; experiment: Binding affinity to human serum albumin assessed as change in free energy at 298K by Van't Hoff plot analysis; format: ADME; settings: isolated protein
Albumin [42] = target: T1, Albumin; experiment: Binding affinity to human serum albumin assessed as change in free energy at 308K by Van't Hoff plot analysis; format: ADME; settings: isolated protein
Albumin [43] = target: T1, Albumin; experiment: Binding affinity to human serum albumin assessed as change in free energy at 318K by Van't Hoff plot analysis; format: ADME; settings: isolated protein
Albumin [44] = target: T1, Albumin; experiment: Binding affinity to human serum albumin assessed as change in entropy by Van't Hoff plot analysis; format: ADME; settings: isolated protein
Albumin [45] = target: T1, Albumin; experiment: Binding affinity to human serum albumin assessed as dynamic quenching by measuring decrease in decay time of HSA at 0 to 21 uM by time-resolved fluorescence analysis; format: ADME; settings: isolated protein, dose 0-21 µM
Calf thymus DNA [46] = experiment: Binding affinity to calf thymus DNA assessed as hypochromic shift in absorption band at 344 nm at 5 uM by UV-Vis absorption spectroscopy; format: nucleic-acid assay; settings: Bos taurus
Calf thymus DNA [47] = experiment: Binding affinity to calf thymus DNA by Benesi-Hildebrand equation based analysis; format: nucleic-acid assay; settings: Bos taurus
Calf thymus DNA [48] = experiment: Binding affinity to calf thymus DNA assessed as DNA intercalation by measuring increase in DNA melting temperature by thermal denaturation based analysis; format: nucleic-acid assay; settings: Bos taurus
Calf thymus DNA [49] = experiment: Binding affinity to calf thymus DNA assessed as Stern-Volmer quenching constant by fluorescence based analysis; format: nucleic-acid assay; settings: Bos taurus
Calf thymus DNA [50] = experiment: Binding affinity to calf thymus DNA assessed as quenching constant by fluorescence based analysis; format: nucleic-acid assay; settings: Bos taurus
Calf thymus DNA [51] = experiment: Binding affinity to calf thymus DNA assessed as binding constant by fluorescence based analysis; format: nucleic-acid assay; settings: Bos taurus
Calf thymus DNA [52] = experiment: Binding affinity to calf thymus DNA assessed as DNA intercalation by measuring quenching in emission band at 601 nm at 0 to 90 uM by ethidium bromide competitive displacement assay; format: nucleic-acid assay; settings: Bos taurus; dose 0-90 µM

T1 sequence (P02768 whole entry): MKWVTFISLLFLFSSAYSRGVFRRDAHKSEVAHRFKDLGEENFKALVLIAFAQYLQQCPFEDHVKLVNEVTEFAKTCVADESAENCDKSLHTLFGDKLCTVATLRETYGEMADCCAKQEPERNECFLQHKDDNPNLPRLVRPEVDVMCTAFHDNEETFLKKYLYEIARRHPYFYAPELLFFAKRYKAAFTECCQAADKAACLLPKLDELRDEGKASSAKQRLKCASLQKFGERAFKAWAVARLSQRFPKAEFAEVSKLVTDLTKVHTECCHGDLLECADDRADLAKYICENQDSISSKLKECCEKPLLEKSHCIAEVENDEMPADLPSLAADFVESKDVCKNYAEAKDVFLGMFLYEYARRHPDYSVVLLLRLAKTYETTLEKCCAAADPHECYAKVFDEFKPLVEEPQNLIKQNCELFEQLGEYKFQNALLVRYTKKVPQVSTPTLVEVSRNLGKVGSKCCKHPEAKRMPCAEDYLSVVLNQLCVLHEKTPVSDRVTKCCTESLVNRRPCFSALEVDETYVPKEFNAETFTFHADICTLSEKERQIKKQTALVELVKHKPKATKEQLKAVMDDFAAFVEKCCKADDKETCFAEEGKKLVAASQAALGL

`O=C1c2cccc3cccc(c23)C(=O)N1Nc1nc(NCc2ccccc2)nc(N2CCOCC2)n1` gave an MIC (Enterococcus faecalis [1]) of 0.003 µg/mL (≈ 0.00623 µM), an MIC (Bacillus subtilis) of 3.12 µg/mL (≈ 6.49 µM) and an MIC (Listeria) of 6.25 µg/mL (≈ 13 µM). The MIC (Staphylococcus aureus [2]) was 1.56 µg/mL (≈ 3.24 µM), the MIC (Escherichia coli) was 100 µg/mL (≈ 208 µM) and the MIC (Salmonella enterica) was 200 µg/mL (≈ 415 µM). The MIC [3] was 200 µg/mL (≈ 415 µM), the MIC (Serratia marcescens) was 100 µg/mL (≈ 208 µM) and the MBC (Enterococcus faecalis [4]) was 0.19 µg/mL (≈ 0.395 µM). For the same compound, the MBC (Staphylococcus aureus [5]) was 3.25 µg/mL (≈ 6.75 µM), the Ratio (Enterococcus faecalis [6]) was “>=32” and the Ratio (Staphylococcus aureus [7]) was 2. For the same compound, the Activity (Staphylococcus aureus [8]) was “Active”, the Activity (Staphylococcus aureus [9]) was “Active” and the Activity (Staphylococcus aureus [10]) was “Active”. For the same compound, the Activity (Staphylococcus aureus [11]) was “Active”, the “inhibition (INH)” value (Staphylococcus aureus [12]) was 60% and the “inhibition (INH)” value (Staphylococcus aureus [13]) was 30%. For the same compound, the “inhibition (INH)” value (Staphylococcus aureus [14]) was 10%, the “inhibition (INH)” value (Staphylococcus aureus [15]) was 5% and the Activity (Cell membrane [16]) was “Dose-Dependent Effect”. The Activity (Cell membrane [17]) was “Tde”, the Activity (Cell membrane [18]) was “Dose-Dependent Effect” and the Activity (Cell membrane [19]) was “Tde”. For the same compound, the Activity (Cell membrane [20]) was “Active”, the Activity (Cell membrane [21]) was “Active” and the Activity (Cell membrane [22]) was “Active”. For the same compound, the Activity (Cell membrane [23]) was “Active”, the Activity (HEK293 [24]) was 13.4% and the Activity (HEK293 [25]) was 12.2%. The Activity (HEK293 [26]) was 11.8%, the Activity (HEK293 [27]) was 10.5% and the Activity (HEK293 [28]) was 9.01%. The Kb (Albumin [29]) was 1.32 10^5/M, the Activity (Albumin [30]) was “Active” and the Activity (Albumin [31]) was “Active”. For the same compound, the Activity (Albumin [32]) was “Active”, the KSV (Albumin [33]) was 1.63 10^5/M and the Kq (Albumin [34]) was 1.63 10^13/M. For the same compound, the KSV (Albumin [35]) was 1.18 10^5/M, the KSV (Albumin [36]) was 1.13 10^5/M and the Kb (Albumin [37]) was 11.01 10^4/M. The Kb (Albumin [38]) was 6.61 10^4/M, the Kb (Albumin [39]) was 4.41 10^4/M and the deltaH (Albumin [40]) was -2.06 kcal/mol. It also gave a deltaG (Albumin [41]) of -1.64 kcal/mol, a deltaG (Albumin [42]) of -1.62 kcal/mol and a deltaG (Albumin [43]) of -1.61 kcal/mol. For the same compound, the deltaS (Albumin [44]) was -5.88 J/mol.K, the Activity (Albumin [45]) was “Active” and the Activity (Calf thymus DNA [46]) was “Active”. For the same compound, the Kb (Calf thymus DNA [47]) was 5.99 10^4/M, the ΔTm (Calf thymus DNA [48]) was 12.8 °C and the KSV (Calf thymus DNA [49]) was 1.22 10^4/M. The Kq (Calf thymus DNA [50]) was 1.22 10^12/M/s, the Kb (Calf thymus DNA [51]) was 8.26 10^4/M and the Activity (Calf thymus DNA [52]) was “Active”.
